Data taken from the supplement of paper PMC10307832.

Legend:
Test in all cases: relative viability (nuclei count vs DMSO), 5 days (fraction); higher = more cells survive
[1] = test system: NCI-H1395
Outline: (§1)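 Lung cancer cell lines were seeded in 1536-well plates and dosed by pin tool the next day, with either a single drug or a fixed anchor-drug dose combined with five library-drug doses (not always all listed) spaced in √10 steps. Five days later, one step fixed the cells and stained their nuclei (final 0.05% Triton X-100, 1% formaldehyde, 1 ug/ml Hoechst), and nuclei were counted on 4× images. Relative viability is the nuclei count in treated wells divided by the count in vehicle wells, and each value is the median of duplicate plates.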

[2] = test system: COR-L 105
Outline: as §1

[3] = test system: NCI-H23
Outline: as §1

[4] = test system: SW 1573
Outline: as §1

[5] = test system: NCI-H1792
Outline: as §1

[6] = test system: EMC-BAC-2
Outline: as §1

[7] = test system: NCI-H1355
Outline: as §1

[8] = test system: NCI-H1755
Outline: as §1

[9] = test system: NCI-H2228
Outline: as §1

[10] = test system: NCI-H460
Outline: as §1

[11] = test system: LCLC-103H
Outline: as §1

[12] = test system: SK-LU-1
Outline: as §1

[13] = test system: NCI-H1915
Outline: as §1

[14] = test system: NCI-H2009
Outline: as §1

[15] = test system: HARA
Outline: as §1

[16] = test system: HCC-366
Outline: as §1

[17] = test system: NCI-H727
Outline: as §1

[18] = test system: NCI-H1437
Outline: as §1

[19] = test system: A-427
Outline: as §1

[20] = test system: HCC-827
Outline: as §1

[21] = test system: CAL-12T
Outline: as §1

[22] = test system: NCI-H1975
Outline: as §1

[23] = test system: HOP-62
Outline: as §1

Compound: CC1(C)CCC(c2ccc(Cl)cc2)=C(CN2CCN(c3ccc(C(=O)NS(=O)(=O)c4ccc(N[C@H](CCN5CCOCC5)CSc5ccccc5)c(S(=O)(=O)C(F)(F)F)c4)cc3)CC2)C1 [Navitoclax] + C[C@]1(O)C[C@@H](c2nc(-c3ccc4ccc(-c5ccccc5)nc4c3)c3c(N)nccn32)C1 [Linsitinib] (partner 1 µM)
- relative viability ([1]; first compound 0.005 µM): 0.938
- relative viability ([1]; first compound 0.01581 µM): 1.34
- relative viability ([1]; first compound 0.05 µM): 1.08
- relative viability ([1]; first compound 0.1581 µM): 1.13
- relative viability ([1]; first compound 0.5 µM): 1.27
- relative viability ([2]; first compound 0.005 µM): 0.937
- relative viability ([2]; first compound 0.01581 µM): 1.02
- relative viability ([2]; first compound 0.05 µM): 1.05
- relative viability ([2]; first compound 0.1581 µM): 1.09
- relative viability ([2]; first compound 0.5 µM): 0.979
- relative viability ([3]; first compound 0.005 µM): 0.628
- relative viability ([3]; first compound 0.01581 µM): 0.691
- relative viability ([3]; first compound 0.05 µM): 0.559
- relative viability ([3]; first compound 0.1581 µM): 0.509
- relative viability ([3]; first compound 0.5 µM): 0.642
- relative viability ([4]; first compound 0.005 µM): 0.856
- relative viability ([4]; first compound 0.01581 µM): 0.841
- relative viability ([4]; first compound 0.05 µM): 0.747
- relative viability ([4]; first compound 0.1581 µM): 0.798
- relative viability ([4]; first compound 0.5 µM): 0.898
- relative viability ([5]; first compound 0.005 µM): 0.554
- relative viability ([5]; first compound 0.01581 µM): 0.629
- relative viability ([5]; first compound 0.05 µM): 0.414
- relative viability ([5]; first compound 0.1581 µM): 0.539
- relative viability ([5]; first compound 0.5 µM): 0.609
- relative viability ([6]; first compound 0.005 µM): 0.759
- relative viability ([6]; first compound 0.01581 µM): 0.895
- relative viability ([6]; first compound 0.05 µM): 0.809
- relative viability ([6]; first compound 0.1581 µM): 0.78
- relative viability ([6]; first compound 0.5 µM): 0.83
- relative viability ([7]; first compound 0.005 µM): 0.831
- relative viability ([7]; first compound 0.01581 µM): 0.892
- relative viability ([7]; first compound 0.05 µM): 0.817
- relative viability ([7]; first compound 0.1581 µM): 0.775
- relative viability ([7]; first compound 0.5 µM): 0.834
- relative viability ([8]; first compound 0.005 µM): 0.969
- relative viability ([8]; first compound 0.01581 µM): 0.993
- relative viability ([8]; first compound 0.05 µM): 0.954
- relative viability ([8]; first compound 0.1581 µM): 0.968
- relative viability ([8]; first compound 0.5 µM): 1.02
- relative viability ([9]; first compound 0.005 µM): 0.877
- relative viability ([9]; first compound 0.01581 µM): 0.81
- relative viability ([9]; first compound 0.05 µM): 0.623
- relative viability ([9]; first compound 0.1581 µM): 0.626
- relative viability ([9]; first compound 0.5 µM): 0.639
- relative viability ([10]; first compound 0.005 µM): 0.77
- relative viability ([10]; first compound 0.01581 µM): 0.825
- relative viability ([10]; first compound 0.05 µM): 0.919
- relative viability ([10]; first compound 0.1581 µM): 0.896
- relative viability ([10]; first compound 0.5 µM): 0.744
- relative viability ([11]; first compound 0.005 µM): 1.07
- relative viability ([11]; first compound 0.01581 µM): 1.19
- relative viability ([11]; first compound 0.05 µM): 1.09
- relative viability ([11]; first compound 0.1581 µM): 1.03
- relative viability ([11]; first compound 0.5 µM): 1.02
- relative viability ([12]; first compound 0.005 µM): 1.07
- relative viability ([12]; first compound 0.01581 µM): 1.25
- relative viability ([12]; first compound 0.05 µM): 1.2
- relative viability ([12]; first compound 0.1581 µM): 1.08
- relative viability ([12]; first compound 0.5 µM): 0.773
- relative viability ([13]; first compound 0.005 µM): 1.1
- relative viability ([13]; first compound 0.01581 µM): 1.12
- relative viability ([13]; first compound 0.05 µM): 1.07
- relative viability ([13]; first compound 0.1581 µM): 1.05
- relative viability ([13]; first compound 0.5 µM): 1.06
- relative viability ([14]; first compound 0.005 µM): 1.08
- relative viability ([14]; first compound 0.01581 µM): 1.25
- relative viability ([14]; first compound 0.05 µM): 1.16
- relative viability ([14]; first compound 0.1581 µM): 1.18
- relative viability ([14]; first compound 0.5 µM): 1.31
- relative viability ([15]; first compound 0.005 µM): 0.833
- relative viability ([15]; first compound 0.01581 µM): 1.16
- relative viability ([15]; first compound 0.05 µM): 0.749
- relative viability ([15]; first compound 0.1581 µM): 0.918
- relative viability ([15]; first compound 0.5 µM): 0.861
- relative viability ([16]; first compound 0.005 µM): 0.672
- relative viability ([16]; first compound 0.01581 µM): 0.728
- relative viability ([16]; first compound 0.05 µM): 0.155
- relative viability ([16]; first compound 0.1581 µM): 0.615
- relative viability ([16]; first compound 0.5 µM): 0.449
- relative viability ([17]; first compound 0.005 µM): 0.299
- relative viability ([17]; first compound 0.01581 µM): 0.358
- relative viability ([17]; first compound 0.1581 µM): 0.284
- relative viability ([17]; first compound 0.5 µM): 0.162
- relative viability ([18]; first compound 0.005 µM): 0.952
- relative viability ([18]; first compound 0.01581 µM): 1.08
- relative viability ([18]; first compound 0.05 µM): 1.02
- relative viability ([18]; first compound 0.1581 µM): 1.09
- relative viability ([18]; first compound 0.5 µM): 0.95
- relative viability ([19]; first compound 0.005 µM): 1.13
- relative viability ([19]; first compound 0.01581 µM): 1.11
- relative viability ([19]; first compound 0.05 µM): 0.911
- relative viability ([19]; first compound 0.1581 µM): 1.12
- relative viability ([19]; first compound 0.5 µM): 1.15
- relative viability ([20]; first compound 0.005 µM): 0.91
- relative viability ([20]; first compound 0.01581 µM): 0.989
- relative viability ([20]; first compound 0.05 µM): 0.864
- relative viability ([20]; first compound 0.1581 µM): 0.926
- relative viability ([20]; first compound 0.5 µM): 0.928
- relative viability ([21]; first compound 0.005 µM): 0.849
- relative viability ([21]; first compound 0.01581 µM): 0.937
- relative viability ([21]; first compound 0.05 µM): 0.775
- relative viability ([21]; first compound 0.1581 µM): 0.736
- relative viability ([21]; first compound 0.5 µM): 0.726
- relative viability ([22]; first compound 0.005 µM): 1.01
- relative viability ([22]; first compound 0.01581 µM): 1.14
- relative viability ([22]; first compound 0.05 µM): 1.07
- relative viability ([22]; first compound 0.1581 µM): 0.869
- relative viability ([22]; first compound 0.5 µM): 1
- relative viability ([23]; first compound 0.005 µM): 0.976
- relative viability ([23]; first compound 0.01581 µM): 0.871
- relative viability ([23]; first compound 0.05 µM): 0.955
- relative viability ([23]; first compound 0.1581 µM): 0.767
- relative viability ([23]; first compound 0.5 µM): 0.923
